Measurements: patent US20250186600A1, “EXCIPIENT COMPOUNDS FOR PROTEIN FORMULATIONS” (Comera Life Sciences, Inc., priority 2020, published 2025)
Where a name gives a salt, the structure may show the parent alone. One block for each compound: values may come before it.

What was measured:
[1] = test system: proteins described in Table 50; assay: DLS diffusion interaction parameter kD (Example 49); type: physicochemical; conditions: mixed 1:1 with protein solution, 20 mM His HCl pH 6, 25° C.
Procedure: The resulting solution was titrated to pH 6 by dropwise addition of 1 M hydrochloric acid. After pH adjustment, the buffer was diluted to a final volume of 1 L in a volumetric flask with Type 1 ultrapure water. All excipients used in this Example, listed in Table 50 below, were of the highest purity, and were obtained from Sigma Aldrich (St. Louis, MO) or Cayman Chemical (Ann Arbor, MI).
A series of six test protein solutions were prepared using the proteins described in Table 50, ranging in protein concentration from about 4 mg/mL to about 20 mg/mL, all in 20 mM His HCl buffer at pH 6. […] A second centrifuge step was completed to remove air bubbles. The diffusion interaction parameter (kD) of these protein-excipient formulations was measured by dynamic light scattering (DLS) in dilute solution as a way of probing the impact of excipients on protein-protein interactions (PPI). […] A more negative kD indicated a stronger net attractive PPI and a more positive kD indicated a stronger net repulsive PPI.

[2] = Caffeine solubility with co-solutes during refrigerated storage (Example 61); type: physicochemical; parameters: key: (PPT)—precipitate observed; (—)—clear solution observed; conditions: 50 mM co-solute, 25 mM histidine pH 6, stored 2 to 5° C.
Procedure: The resulting microplates were then sealed with microplate tape and stored in a refrigerator with the temperature maintained in the range of 2 to 5° C. Over the course of storage, the microplates were visually observed for evidence of precipitate in the well.

[3] = excipient stock concentration 200 mM
[4] = excipient stock concentration 100 mM

Structure (SMILES): Cc1ncc[nH]1 [Excipient 2-Methylimidazole, 2-Methylimidazole]
Omalizumab kD [1, 3]: -24.5 mL/g | Ustekinumab kD [1, 3]: -0.5 mL/g

Structure (SMILES): O=C([O-])c1ccccc1.[Na+] [Sodium benzoate]
Day 1 (visual observation for precipitate) ([2]; caffeine 7.5 mg/mL): — | Day 7 (visual observation for precipitate) ([2]; caffeine 7.5 mg/mL): — | Day 18 (visual observation for precipitate) ([2]; caffeine 7.5 mg/mL): — | Day 27 (visual observation for precipitate) ([2]; caffeine 7.5 mg/mL): — | Day 56 (visual observation for precipitate) ([2]; caffeine 7.5 mg/mL): — | Day 1 (visual observation for precipitate) ([2]; caffeine 10 mg/mL): — | Day 7 (visual observation for precipitate) ([2]; caffeine 10 mg/mL): — | Day 18 (visual observation for precipitate) ([2]; caffeine 10 mg/mL): — | Day 27 (visual observation for precipitate) ([2]; caffeine 10 mg/mL): — | Day 56 (visual observation for precipitate) ([2]; caffeine 10 mg/mL): — | Day 1 (visual observation for precipitate) ([2]; caffeine 12.5 mg/mL): — | Day 7 (visual observation for precipitate) ([2]; caffeine 12.5 mg/mL): — | Day 18 (visual observation for precipitate) ([2]; caffeine 12.5 mg/mL): — | Day 27 (visual observation for precipitate) ([2]; caffeine 12.5 mg/mL): — | Day 56 (visual observation for precipitate) ([2]; caffeine 12.5 mg/mL): — | Day 1 (visual observation for precipitate) ([2]; caffeine 15 mg/mL): — | Day 7 (visual observation for precipitate) ([2]; caffeine 15 mg/mL): — | Day 18 (visual observation for precipitate) ([2]; caffeine 15 mg/mL): — | Day 27 (visual observation for precipitate) ([2]; caffeine 15 mg/mL): — | Day 56 (visual observation for precipitate) ([2]; caffeine 15 mg/mL): PPT | Day 1 (visual observation for precipitate) ([2]; caffeine 20 mg/mL): — | Day 7 (visual observation for precipitate) ([2]; caffeine 20 mg/mL): — | Day 18 (visual observation for precipitate) ([2]; caffeine 20 mg/mL): PPT | Day 27 (visual observation for precipitate) ([2]; caffeine 20 mg/mL): PPT | Day 56 (visual observation for precipitate) ([2]; caffeine 20 mg/mL): PPT

Structure (SMILES): C1COCCOCCOCCOCCO1 [15-crown-5 ether]
Omalizumab kD [1, 3]: -25.0 mL/g | Ustekinumab kD [1, 3]: 26.7 mL/g

Structure (SMILES): CCN(CC)CCCC(C)Nc1ccnc2cc(Cl)ccc12 (centres unmarked) [Chloroquine Phosphate]
Omalizumab kD [1, 4]: -26.4 mL/g | Ustekinumab kD [1, 4]: 15.2 mL/g

Structure (SMILES): CN(C)CCN(C)C.Cl [Tetramethylethylenediamine HCl]
Omalizumab kD [1, 3]: -14.6 mL/g | Ustekinumab kD [1, 3]: 0.1 mL/g

Structure (SMILES): OCc1ccccc1 [Benzyl alcohol]
Day 1 (visual observation for precipitate) ([2]; caffeine 7.5 mg/mL): — | Day 7 (visual observation for precipitate) ([2]; caffeine 7.5 mg/mL): — | Day 18 (visual observation for precipitate) ([2]; caffeine 7.5 mg/mL): — | Day 27 (visual observation for precipitate) ([2]; caffeine 7.5 mg/mL): — | Day 56 (visual observation for precipitate) ([2]; caffeine 7.5 mg/mL): — | Day 1 (visual observation for precipitate) ([2]; caffeine 10 mg/mL): — | Day 7 (visual observation for precipitate) ([2]; caffeine 10 mg/mL): — | Day 18 (visual observation for precipitate) ([2]; caffeine 10 mg/mL): — | Day 27 (visual observation for precipitate) ([2]; caffeine 10 mg/mL): — | Day 56 (visual observation for precipitate) ([2]; caffeine 10 mg/mL): — | Day 1 (visual observation for precipitate) ([2]; caffeine 12.5 mg/mL): — | Day 7 (visual observation for precipitate) ([2]; caffeine 12.5 mg/mL): — | Day 18 (visual observation for precipitate) ([2]; caffeine 12.5 mg/mL): — | Day 27 (visual observation for precipitate) ([2]; caffeine 12.5 mg/mL): — | Day 56 (visual observation for precipitate) ([2]; caffeine 12.5 mg/mL): — | Day 1 (visual observation for precipitate) ([2]; caffeine 15 mg/mL): — | Day 7 (visual observation for precipitate) ([2]; caffeine 15 mg/mL): — | Day 18 (visual observation for precipitate) ([2]; caffeine 15 mg/mL): — | Day 27 (visual observation for precipitate) ([2]; caffeine 15 mg/mL): PPT | Day 56 (visual observation for precipitate) ([2]; caffeine 15 mg/mL): PPT | Day 1 (visual observation for precipitate) ([2]; caffeine 20 mg/mL): — | Day 7 (visual observation for precipitate) ([2]; caffeine 20 mg/mL): PPT | Day 18 (visual observation for precipitate) ([2]; caffeine 20 mg/mL): PPT | Day 27 (visual observation for precipitate) ([2]; caffeine 20 mg/mL): PPT | Day 56 (visual observation for precipitate) ([2]; caffeine 20 mg/mL): PPT

Structure (SMILES): CC(=O)CC(=O)OCc1ccccc1 [Benzyl acetonacetate]
Omalizumab kD [1, 4]: -27.0 mL/g | Ustekinumab kD [1, 4]: 26.6 mL/g

Structure (SMILES): Cl.NCC(O)c1ccc(O)c(O)c1 (racemic) [DL-Norepinephrine HCl]
Omalizumab kD [1, 4]: -19.8 mL/g | Ustekinumab kD [1, 4]: 1.5 mL/g

Structure (SMILES): O.O.O.O.O.O.O.O.O.O.[Na+].[Na+].[O-]B1OB2OB([O-])OB(O1)O2 [Sodium borate]
Omalizumab kD [1, 3]: -28.8 mL/g | Ustekinumab kD [1, 3]: 17.9 mL/g

Further lines, results first:

Ustekinumab kD [1, 4]: 36.1 mL/g
Structure (SMILES): N=C(N)NC(=O)Cc1c(Cl)cccc1Cl [Guanfacine HCl]

Day 1 (visual observation for precipitate) ([2]; caffeine 7.5 mg/mL): — | Day 7 (visual observation for precipitate) ([2]; caffeine 7.5 mg/mL): — | Day 18 (visual observation for precipitate) ([2]; caffeine 7.5 mg/mL): — | Day 27 (visual observation for precipitate) ([2]; caffeine 7.5 mg/mL): — | Day 56 (visual observation for precipitate) ([2]; caffeine 7.5 mg/mL): — | Day 1 (visual observation for precipitate) ([2]; caffeine 10 mg/mL): — | Day 7 (visual observation for precipitate) ([2]; caffeine 10 mg/mL): — | Day 18 (visual observation for precipitate) ([2]; caffeine 10 mg/mL): — | Day 27 (visual observation for precipitate) ([2]; caffeine 10 mg/mL): — | Day 56 (visual observation for precipitate) ([2]; caffeine 10 mg/mL): — | Day 1 (visual observation for precipitate) ([2]; caffeine 12.5 mg/mL): — | Day 7 (visual observation for precipitate) ([2]; caffeine 12.5 mg/mL): — | Day 18 (visual observation for precipitate) ([2]; caffeine 12.5 mg/mL): — | Day 27 (visual observation for precipitate) ([2]; caffeine 12.5 mg/mL): — | Day 56 (visual observation for precipitate) ([2]; caffeine 12.5 mg/mL): PPT | Day 1 (visual observation for precipitate) ([2]; caffeine 15 mg/mL): — | Day 7 (visual observation for precipitate) ([2]; caffeine 15 mg/mL): — | Day 18 (visual observation for precipitate) ([2]; caffeine 15 mg/mL): PPT | Day 27 (visual observation for precipitate) ([2]; caffeine 15 mg/mL): PPT | Day 56 (visual observation for precipitate) ([2]; caffeine 15 mg/mL): PPT | Day 1 (visual observation for precipitate) ([2]; caffeine 20 mg/mL): PPT | Day 7 (visual observation for precipitate) ([2]; caffeine 20 mg/mL): PPT | Day 18 (visual observation for precipitate) ([2]; caffeine 20 mg/mL): PPT | Day 27 (visual observation for precipitate) ([2]; caffeine 20 mg/mL): PPT | Day 56 (visual observation for precipitate) ([2]; caffeine 20 mg/mL): PPT
Structure (SMILES): CN1CCCC1=O [N-Methyl-2-pyrrolidone]

Omalizumab kD [1, 3]: -26.6 mL/g | Ustekinumab kD [1, 3]: 21.0 mL/g
Structure (SMILES): COc1cc(C=CC(=O)O)ccc1O [4-hydroxy-3-methoxycinnamic acid]

Omalizumab kD [1, 4]: -24.1 mL/g | Ustekinumab kD [1, 4]: 26.5 mL/g
Structure (SMILES): C#CCN[C@@H]1CCc2ccccc21 [rasagiline mesylate]

Omalizumab kD [1, 3]: -29.1 mL/g | Ustekinumab kD [1, 3]: 33.2 mL/g
Structure (SMILES): O=c1cc(CO)occ1O [Kojic Acid]

Omalizumab kD [1, 3]: -14.7 mL/g | Ustekinumab kD [1, 3]: -13.6 mL/g
Structure (SMILES): N[C@@H]1CON=C1O [Cycloserine]

Omalizumab kD [1, 3]: -17.4 mL/g | Ustekinumab kD [1, 3]: 1.5 mL/g
Structure (SMILES): Nc1ccc(C(=O)O)cc1 [4-Aminobenzoic acid]

Omalizumab kD [1, 3]: -23.6 mL/g | Ustekinumab kD [1, 3]: 27.3 mL/g
Structure (SMILES): NC(=O)CN1CCCC1=O [Piracetam]

Omalizumab kD [1, 3]: -24.1 mL/g | Ustekinumab kD [1, 3]: 24.0 mL/g
Structure (SMILES): Nn1nnc2ccccc21 [Excipient 1-aminobenzotriazole, 1-aminobenzotriazole]
